Experimental data from US20120101163A1, “COMPOSITION FOR INHIBITING CANCER METASTASIS” (TAIPEI MEDICAL UNIVERSITY, priority 2010, published 2012).

Legend:
HT 1080 cells [1] = assay: Cancer cell survival rate test (MTT); format: cell-based, Human; settings: different concentrations, 24 hours
Method: 3. Cancer Cell Survival Rate Test (Lambert et al., 1997; Yang et al., 2006)
A medium in a culturing plate containing cells grown covering the whole bottom of the culturing plate, was removed. The cells were washed with 10 ml of PBS, and then suspended and mixed well with 10 ml of medium (a part of the cells need to be suspended with Trypsin-EDTA buffer). The numbers of the cells were calculated by a hemocytometer, and the cells were diluted to an appropriate cell concentration and added into the wells of a 24 well culturing plate by an amount of 500 μl/well. The 24 well culturing plates were placed in an incubator at 37° C. in a humidified atmosphere containing 5% CO2. After the cells were attached onto the bottom of the wells, the medium in each well was removed, and fresh mediums with different concentrations of a test drug were added into wells, respectively (if the cells were suspension cells, the fresh medium may be added into the wells, directly). Then, the 24 well culturing plates were placed in an incubator at 37° C. in a humidified atmosphere containing 5% CO2 for 24 hours. After that, an upper medium in each well was removed. The cells were washed with a PBS buffer twice, and then an MTT solution which was prepared with a medium was added to each well. […] After that, an ELISA reader was used to determine the absorbance for each well at 600 nm.

[2] = test system: matrix metalloproteinase-2; assay: Gelatin gel zymography of PMA-induced HT 1080 cells, MMP-2 activity; format: cell-based, Human
Method: (§1) 4. Gelatin Gel Zymography (Shim et al., 2003; Park et al., 2005; Hwang et al., 2006)
(§2) HT 1080 cells with appropriate cell numbers were cultured in 60 mm culturing plates for 12 hours, respectively. After the cells were attached onto the bottom of the plate and formed a monolayer, the medium in the plate was removed. Fresh serum free mediums with different concentrations of a test sample were added to the plates, respectively, and 100 nM PMA was added to each plate to induce the cells to express great quantities of matrix metalloproteinase-2 and matrix metalloproteinase-9, and the plates were placed in a temperature of 37° C. for 24 hours. After centrifugation, each cultured supernatant were saved and mixed with SDS-sample buffer under the same protein contents which were then injected into a 10% SDS-polyacrylamide gel (containing 1 mg/ml gelatin) and then electrophoresed. After the electrophoresis was completed, the gel was taken out and washed with 20 mM Tris-HCl containing 25% isopropanol three times; 10 minutes per time. Then the gel was equilibrated with 20 mM Tris-HCl for 30 minutes, and finally an incubate buffer (5 mM CaCl2 and 1 mM ZnCl2) was added to the gel and reacted with the gel overnight. Then the gel was stained with coomassie blue, and positions having matrix metalloproteinase activity of the gel presented a white color.

[3] = test system: matrix metalloproteinase-9; assay: Gelatin gel zymography of PMA-induced HT 1080 cells, MMP-9 activity; format: cell-based, Human
Method: as §1, §2

HT 1080 cells [4] = assay: Wound healing assay and colony dispersion assay (cell migration); format: cell-based, Human
Method: 8. Wound Healing Assay (Park et al., 2005; Hwang et al., 2006)
Cells with appropriate cell numbers were cultured in a 24 well culturing plate for 12 hours. After the cells were attached to each bottom of each well of the plate and formed a monolayer, the medium in the well was removed. The middle of each bottom of each well having the monolayer thereon was scraped by a 200 μl tip to form a scratched line with a width of 1 mm. The cells in each well were washed with a PBS buffer twice, and fresh mediums with different concentrations of a test drug were added to the wells, respectively and cultured for 18 hours. After that, the upper medium in each well was removed. The cells were washed with a PBS buffer twice, fixed with 100% methanol and stained with a toluidine blue. The calculation for the migration rate of the cells was:
9. Colony Dispersion Assay (Hwang et al., 2006)
Cells with appropriate cell numbers were cultured in a 24 well culturing plate for 12 hours. After the cells were attached to each bottom of each well of the plate and formed a monolayer, the medium in the well was removed. Fresh mediums with different concentrations of a test drug were added to the wells, respectively and cultured for 3 days. After that, the upper medium in each well was removed. Then, the cells were washed with a PBS buffer twice, fixed with 100% methanol and stained with a toluidine blue.

[5] = test system: human umbilical vein endothelial cells; assay: Cell viability assay of human umbilical vein endothelial cells; format: cell-based; settings: 24 hours
Method: A medium in a culturing plate containing cells grown covering the whole bottom of the culturing plate, was removed. The cells were washed with 10 ml of PBS, and then suspended and mixed well with 10 ml of medium (a part of the cells need to be suspended with Trypsin-EDTA buffer). The numbers of the cells were calculated by a hemocytometer, and the cells were diluted to an appropriate cell concentration and added into the wells of a 24 well culturing plate by an amount of 500 μl/well. The 24 well culturing plates were placed in an incubator at 37° C. in a humidified atmosphere containing 5% CO2. After the cells were attached onto the bottom of the wells, the medium in each well was removed, and fresh mediums with different concentrations of a test drug were added into wells, respectively (if the cells were suspension cells, the fresh medium may be added into the wells, directly). Then, the 24 well culturing plates were placed in an incubator at 37° C. in a humidified atmosphere containing 5% CO2 for 24 hours. After that, an upper medium in each well was removed. The cells were washed with a PBS buffer twice, and then an MTT solution which was prepared with a medium was added to each well. After the 24 well culturing plates were placed in an incubator at 37° C. for reacting 4-6 hours, an upper medium in each well was removed, and 100 μl of DMSO was added to each well to solubilize the formazan precipitates. After that, an ELISA reader was used to determine the absorbance for each well at 600 nm.
After human umbilical vein endothelial cells were treated with the different concentrations of L-Aspartic acid β-hydroxamate (CH) and different concentrations of L-Glutamic acid γ-hydroxamate (DH) for 24 hours, respectively, the cell viability assays were performed to the treated human umbilical vein endothelial cells and the angiogenesis conditions of the human umbilical vein endothelial cells were recorded. The results of the cell viability assays are shown as FIGS. 13 (A) and 14 (A). Photographs for the human umbilical vein endothelial cells treated with L-Aspartic acid β-hydroxamate (CH) and human umbilical vein endothelial cells treated with L-Glutamic acid γ-hydroxamate (DH) are shown as FIGS. 13 (B) and 14 (B), respectively.

[6] = test system: human umbilical vein endothelial cells; assay: Tube formation assay (angiogenesis); format: cell-based
Method: 13. Tube Formation Assay (Malinda et al., 1999)
1μ-Slide Angiogenesis ibiTreat chambers were coated with 10 μl Matrigel™ Mixtrix and placed in an incubator at 37° C. for 1 hour. 40 μl of a 3×10^5 cells/ml cell suspension was added to each chamber and left still for 20 minutes to let the cells attach to the chamber. After that, the medium in each chamber was removed. Fresh mediums with different concentrations of a test drug were added to the chambers, respectively and placed in an incubator at 37° C. After 18 hours, the angiogenesis appearance in each chamber was observed and photographed for recording.

[7] = 0.4, 0.8, 1.2, and 1.6, 24 hours
[8] = HT 1080 cells, 0.4, 0.8, 1.2 and 1.6 mM, 24 hours

Q: For NC(CCC(=O)NO)C(=O)O [DH, L-Glutamic acid γ-hydroxamate], which “cytotoxicity to HT 1080 cells” value (HT 1080 cells [1]) is on record?
A: The value was “no significant cytotoxicity”.

Q: And the “protein activity of matrix metalloproteinase-2 secreted out of and left in HT 1080 cells” value [2, 7]?
A: Its value is “also decreased”.

Q: What about the “inhibition rate to the activity of matrix metalloproteinase-2” value ([2]; HT 1080 cells treated 24 hours) of the same compound?
A: Its value is “greater than 50%”.

Q: What about the “matrix metalloproteinase-2 inhibiting activity” value [2, 8] of the same compound?
A: The value was “increased while the concentration thereof was increased”.

Q: And the “inhibition rate to the protein activity of metalloproteinase-2 of a cancer cell” value ([2]; about 0.1-2 mM, stated as embodiment, 'and/or' MMP-9)?
A: Its value is 40-70%.

Q: What about the “protein activity of matrix metalloproteinase-9 secreted out of and left in HT 1080 cells” value [3, 7] of the same compound?
A: The value was “also decreased”.

Q: And the “inhibition rate to the activity of matrix metalloproteinase-9” value ([3]; HT 1080 cells treated 24 hours)?
A: Its value is “greater than 50%”.

Q: And the “matrix metalloproteinase-9 inhibiting activity” value [3, 8]?
A: The value was “increased while the concentration thereof was increased”.

Q: What about the “inhibition rate to the protein activity of matrix metalloproteinase-9 of a cancer cell” value ([3]; about 0.1-2 mM, stated as embodiment, 'and/or' MMP-2) of the same compound?
A: Its value is 40-70%.

Q: What about the IC50 (HT 1080 cells [4]; Homo sapiens, HT-1080, 0.4, 1.2, 2 and 2.8 mM, 18 hours) of the same compound?
A: The IC50 was 1750 µM.

Q: And the “inhibition rate to cancer cell migration” value (HT 1080 cells [4]; about 0.1-3 mM, stated as embodiment)?
A: The value was 20-85%.

Q: What about the “cytotoxicity to human umbilical vein endothelial cells” value ([5]; 0.25 mM) of the same compound?
A: Its value is “no cytotoxicity”.

Q: And the “viability of human umbilical vein endothelial cells” value ([5]; 0.75 mM)?
A: The value was “slight decreases”.

Q: What about the “inhibition rate to angiogenesis” value ([6]; about 0.1-1.5 mM, stated as embodiment) of the same compound?
A: The value was 10-90%.

Q: And the “angiogenesis compared with the control group” value ([6]; increasing concentrations)?
A: Its value is “significantly inhibited”.
